Test system: E. coli BL21 transformed with pET28_CHI_ΔLid and pET22_ERED
Assay: Whole-cell biocatalysis of naringin
Type: cell-based
Conditions: 150 μM naringin, cell suspension OD=150 in 20 mM TRIS-HCl pH 7.5, gassed with nitrogen, 23° C., 900 rpm, 22 h
Method: After successful cloning the plasmid pET28_CHI_ΔLid (FIG. 1) together with the plasmid pET22_ERED was transformed into E. coli BL21.
200 mL LBkan, amp were inoculated with 1% (v/v) of an overnight culture and grown at 37° C. to an OD≥1. The induction of the expression was then carried out with 0.1 mM IPTG. The expression of the protein was carried out for 21 h at 20° C.
After the harvesting of the cells these were normalised with 20 mM TRIS-HCl pH 7.5 to an OD=150. For the implementation of the biocatalyses in each case 490 μL of the cell suspension was added with 10 μL naringin solution (stock solution: 7.5 mM naringin dissolved in 1,2-propylene glycol; final concentration: 150 μM) to a 2 mL Eppendorf reaction vessel and gassed with nitrogen. The biocatalyses were carried out at 23° C., 900 rpm and 22 h. The extraction of the substrates was carried out twice with ethyl acetate.

Structure (SMILES): C[C@@H]1O[C@@H](O[C@H]2[C@H](Oc3cc(O)c4c(c3)O[C@H](c3ccc(O)cc3)CC4=O)O[C@H](CO)[C@@H](O)[C@@H]2O)[C@H](O)[C@H](O)[C@H]1O [naringin]
- conversion of the naringin: 65%
